Test results as given in PubChem BioAssay AID248 (DTP/NCI, 2004).
Where “and” joins values, the source holds several entries; their conditions need not be identical. Equal entries are not always repeated. Toxic doses and inconclusive results are not listed. Rule as the data show it: active = T/C of 150% or more; inactive = T/C below 125%.

Tested on: L1210 leukemia ip in BDF1 mice, survival T/C
Assay: NCI In Vivo Anticancer Drug Screen. Data for tumor model L1210 Leukemia (intraperitoneal) in B6D2F1 (BDF1) mice
Conditions: endpoint: mean survival time, higher = longer survival
In short: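 Tumor cells were implanted, animals were treated, and survival was followed. The result divides the treated measurement by the vehicle-control measurement.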

[1] = dose: 12.5 mg/kg/injection, schedule: Q01DX009 (ip), vehicle: saline with Tween-80
[2] = dose: 25.0 mg/kg/injection, schedule: Q04DX003 (ip), vehicle: saline with Tween-80
[3] = dose: 100.0 mg/kg/injection, schedule: Q01DX009 (ip), vehicle: Klucel (hydroxypropylcellulose) (HPC)
[4] = dose: 200.0 mg/kg/injection, schedule: Q01DX009 (ip), vehicle: Klucel (hydroxypropylcellulose) (HPC)
[5] = dose: 400.0 mg/kg/injection, schedule: Q01DX009 (ip), vehicle: Klucel (hydroxypropylcellulose) (HPC)
[6] = dose: 100.0 mg/kg/injection, schedule: Q04DX003 (ip), vehicle: Klucel (hydroxypropylcellulose) (HPC)
[7] = dose: 200.0 mg/kg/injection, schedule: Q04DX003 (ip), vehicle: Klucel (hydroxypropylcellulose) (HPC)
[8] = dose: 400.0 mg/kg/injection, schedule: Q04DX003 (ip), vehicle: Klucel (hydroxypropylcellulose) (HPC)

Measured: T/C

ClCCN(CCCl)CCCN1c2ccccc2Sc2ccccc21
inactive: dose: 6.25 mg/kg/injection, schedule: Q01DX009 (ip), vehicle: saline with Tween-80 109 % of control | [1] 115 % of control | dose: 12.5 mg/kg/injection, schedule: Q04DX003 (ip), vehicle: saline with Tween-80 97 % of control | dose: 16.0 mg/kg/injection, schedule: Q04DX003 (ip), vehicle: saline with Tween-80 114 % of control | dose: 16.0 mg/kg/injection, schedule: Q04DX003 (ip), vehicle: saline 100 % of control | [2] 97 % of control | dose: 26.0 mg/kg/injection, schedule: Q04DX003 (ip), vehicle: saline 107 % of control | dose: 35.0 mg/kg/injection, schedule: Q04DX003 (ip), vehicle: saline with Tween-80 90 % of control | dose: 35.0 mg/kg/injection, schedule: Q04DX003 (ip), vehicle: saline 103 % of control | dose: 50.0 mg/kg/injection, schedule: Q04DX003 (ip), vehicle: saline with Tween-80 121 % of control

CCOc1ccc(-n2c(O)c(N=Nc3ccc(Br)cc3)c(=O)n(-c3ccc(OC)cc3)c2=S)cc1
inactive: dose: 50.0 mg/kg/injection, schedule: Q01DX001 (ip), vehicle: Klucel (hydroxypropylcellulose) (HPC) 94 % of control | dose: 100.0 mg/kg/injection, schedule: Q01DX001 (ip), vehicle: Klucel (hydroxypropylcellulose) (HPC) 94 % of control | dose: 200.0 mg/kg/injection, schedule: Q01DX001 (ip), vehicle: Klucel (hydroxypropylcellulose) (HPC) 94 % of control

Cc1ccc(Cl)c(NC(=O)Nc2cccc(C(F)(F)F)c2)c1
inactive: [3] 87 % of control | [4] 87 % of control | [5] 90 % of control

CCCCP(=O)(CC(=O)O)c1ccccc1 (stereo not given)
inactive: dose: 100.0 mg/kg/injection, schedule: Q04DX002 (ip), vehicle: saline with Tween-80 97 % of control | dose: 200.0 mg/kg/injection, schedule: Q04DX002 (ip), vehicle: saline with Tween-80 100 % of control | dose: 400.0 mg/kg/injection, schedule: Q04DX002 (ip), vehicle: saline with Tween-80 90 % of control

CCCCCCCCCCCCCCCCCCNC(=O)OCC
inactive: dose: 100.0 mg/kg/injection, schedule: Q04DX002 (sc), vehicle: olive oil, sesame oil, peanut oil 103 % of control | dose: 200.0 mg/kg/injection, schedule: Q04DX002 (sc), vehicle: olive oil, sesame oil, peanut oil 113 % of control | dose: 400.0 mg/kg/injection, schedule: Q04DX002 (sc), vehicle: olive oil, sesame oil, peanut oil 106 % of control

Cc1ccc(/C(=N\N=C(N)N)C2CC2)cc1C
inactive: dose: 15.0 mg/kg/injection, schedule: Q01DX Z (ip), vehicle: methylcellulose (MC) 103 % of control | dose: 30.0 mg/kg/injection, schedule: Q01DX Z (ip), vehicle: methylcellulose (MC) 97 % of control | dose: 30.0 mg/kg/injection, schedule: Q01DX Z (oral), vehicle: methylcellulose (MC) 95 % of control | dose: 60.0 mg/kg/injection, schedule: Q01DX Z (ip), vehicle: methylcellulose (MC) 93 % of control | dose: 60.0 mg/kg/injection, schedule: Q01DX Z (oral), vehicle: methylcellulose (MC) 88 % of control

c1ccc(CN2C3CCCC2CC(c2ccccc2)C3)cc1 (stereo not given)
inactive: dose: 100.0 mg/kg/injection, schedule: Q04DX002 (ip), vehicle: Klucel (hydroxypropylcellulose) (HPC) 92 % of control | dose: 200.0 mg/kg/injection, schedule: Q04DX002 (ip), vehicle: Klucel (hydroxypropylcellulose) (HPC) 87 % of control

O=C(/C=C/c1ccccc1)NC(=S)Nc1ccc(C(=O)O)cc1
inactive: [3] 92 % of control | [6] 101 % of control | [4] 101 % of control | [7] 100 % of control | [5] 94 % of control | [8] 108 % of control

S=C(Nc1ccccc1)Nc1ccc(Cl)c(Cl)c1
inactive: [1] 95 % of control | dose: 25.0 mg/kg/injection, schedule: Q01DX009 (ip), vehicle: saline with Tween-80 92 % of control and 90 % of control | dose: 50.0 mg/kg/injection, schedule: Q01DX009 (ip), vehicle: saline with Tween-80 105 % of control | dose: 100.0 mg/kg/injection, schedule: Q01DX009 (ip), vehicle: saline with Tween-80 87 % of control and 91 % of control

O=c1c(-c2ccccc2)c(-c2ccccc2)c1=O
inactive: dose: 75.0 mg/kg/injection, schedule: Q01DX001 (ip), vehicle: saline 91 % of control | dose: 150.0 mg/kg/injection, schedule: Q01DX001 (ip), vehicle: saline 96 % of control

Nc1nc2ncc(CNc3ccc(C(=O)NC(CCC(=O)O)C(=O)O)nc3)nc2c(=O)[nH]1 (stereo not given)
inactive: dose: 0.75 mg/kg/injection, schedule: Q01DX009 (ip), vehicle: alkali diluted with saline 105 % of control | dose: 1.5 mg/kg/injection, schedule: Q01DX009 (ip), vehicle: alkali diluted with saline 102 % of control | dose: 3.0 mg/kg/injection, schedule: Q01DX009 (ip), vehicle: alkali diluted with saline 111 % of control | dose: 6.0 mg/kg/injection, schedule: Q01DX009 (ip), vehicle: alkali diluted with saline 102 % of control | dose: 12.0 mg/kg/injection, schedule: Q01DX009 (ip), vehicle: alkali diluted with saline 100 % of control | dose: 18.0 mg/kg/injection, schedule: Q01DX009 (ip), vehicle: alkali diluted with saline 112 % of control | dose: 24.0 mg/kg/injection, schedule: Q01DX009 (ip), vehicle: alkali diluted with saline 108 % of control | dose: 36.0 mg/kg/injection, schedule: Q01DX009 (ip), vehicle: alkali diluted with saline 108 % of control | dose: 48.0 mg/kg/injection, schedule: Q01DX009 (ip), vehicle: alkali diluted with saline 118 % of control | dose: 75.0 mg/kg/injection, schedule: Q01DX001 (ip), vehicle: alkali diluted with saline 111 % of control | dose: 150.0 mg/kg/injection, schedule: Q01DX001 (ip), vehicle: alkali diluted with saline 105 % of control

CCOC(=O)CCN(C)CCC(=O)OCC
inactive: dose: 12.5 mg/kg/injection, schedule: Q01DX009 (ip), vehicle: water 101 % of control | dose: 25.0 mg/kg/injection, schedule: Q01DX009 (ip), vehicle: water 103 % of control | dose: 25.0 mg/kg/injection, schedule: Q04DX003 (ip), vehicle: water 101 % of control | dose: 50.0 mg/kg/injection, schedule: Q01DX009 (ip), vehicle: water 105 % of control | dose: 50.0 mg/kg/injection, schedule: Q04DX003 (ip), vehicle: water 101 % of control | dose: 100.0 mg/kg/injection, schedule: Q04DX003 (ip), vehicle: water 101 % of control

CCc1ccc(NS(=O)(=O)c2ccc(OC)cc2)cc1
inactive: [3] 102 % of control | [4] 100 % of control | [5] 109 % of control

CCC(C)C(CN)(CCN1CCCCC1)Cc1cccc2ccccc12 (stereo not given)
inactive: dose: 12.5 mg/kg/injection, schedule: Q04DX003 (ip), vehicle: saline + alcohol 96 % of control | dose: 25.0 mg/kg/injection, schedule: Q04DX003 (ip), vehicle: saline + alcohol 93 % of control | dose: 50.0 mg/kg/injection, schedule: Q04DX003 (ip), vehicle: saline + alcohol 96 % of control

C=CCC(C(C)=O)C(=O)OCC (stereo not given)
inactive: [3] 100 % of control | [6] 93 % of control | [4] 96 % of control | [7] 104 % of control | [5] 96 % of control | [8] 97 % of control

C[N+](C)(C)C1(Cc2ccc(Br)cc2)c2ccccc2-c2ccccc21
inactive: [2] 88 % of control

CCCCCCCCCCCCC1c2ccccc2-c2ccccc21
inactive: dose: 100.0 mg/kg/injection, schedule: Q01DX001 (ip), vehicle: saline 95 % of control | dose: 200.0 mg/kg/injection, schedule: Q01DX001 (ip), vehicle: saline 98 % of control | dose: 400.0 mg/kg/injection, schedule: Q01DX001 (ip), vehicle: saline 107 % of control

CS(=O)c1ccc([N+](=O)[O-])cc1 (stereo not given)
inactive: [6] 98 % of control | [7] 104 % of control | [8] 105 % of control

Cc1ccc([N+](=O)[O-])c(OC(=O)Nc2ccc(Cl)c(Cl)c2)c1
inactive: [3] 101 % of control | [6] 96 % of control and 106 % of control | [4] 101 % of control | [7] 88 % of control | [5] 114 % of control | [8] 87 % of control and 91 % of control

CCOc1ccc(-c2nccs2)cc1N
inactive: dose: 75.0 mg/kg/injection, schedule: Q04DX003 (ip), vehicle: Klucel (hydroxypropylcellulose) (HPC) 104 % of control | dose: 150.0 mg/kg/injection, schedule: Q04DX003 (ip), vehicle: Klucel (hydroxypropylcellulose) (HPC) 92 % of control | dose: 300.0 mg/kg/injection, schedule: Q04DX003 (ip), vehicle: Klucel (hydroxypropylcellulose) (HPC) 93 % of control

CCOC(=O)c1ccc(C(=O)OCC)c(Cl)n1
inactive: [3] 97 % of control | [6] 105 % of control | [4] 95 % of control | [7] 97 % of control | [5] 97 % of control | [8] 102 % of control

CN(C)c1ccc(/C=C/C(=O)/C=C/c2ccc(N(C)C)cc2)cc1
inactive: [3] 96 % of control | [4] 95 % of control | [5] 101 % of control
